Bounds are passed on as bounds.

By IC50 is commonly meant the concentration that inhibits the measured activity by half.

The target of the assay is neutrophil elastase (Homo sapiens (Human), UniProt P08246). The assay can be described thus: Human Neutrophil Elastase Assay. The format is biochemical. Conditions: substrate MeOSuc-Ala-Ala-Pro-Val-AMC. How it is done: Human Neutrophil Elastase Assay
neutrophil elastase, sequence (P08246 30-247): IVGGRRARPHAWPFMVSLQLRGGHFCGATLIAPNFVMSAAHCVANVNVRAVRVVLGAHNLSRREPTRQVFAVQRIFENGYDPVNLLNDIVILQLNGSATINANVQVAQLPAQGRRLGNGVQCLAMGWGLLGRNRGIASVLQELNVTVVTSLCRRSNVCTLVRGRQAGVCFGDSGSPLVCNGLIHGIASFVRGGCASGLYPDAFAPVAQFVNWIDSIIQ
All other materials were of the highest grade commercially available.
The following buffers were used: Compound buffer: 100 mM Tris, 500 mM NaCl, adjusted to pH 7.5; Assay buffer: 100 mM Tris, 500 mM NaCl, adjusted to pH 7.5, containing 0.01% BSA.
Assay conditions: Test compounds were prediluted in DMSO and subsequently in compound buffer (5% DMSO final). […] After inactivation of the enzyme, fluorescence intensities were measured at 380 nm excitation and 460 nm emission wavelengths.
Each plate contains wells with a high value control (DMSO+enzyme+substrate) and wells with a low value control (DMSO+inactivated enzyme+substrate). IC50 values were estimated using a sigmoidal concentration response curve with variable slope. Means of low values were taken as 0%, means of high values as 100%.
In turn, `CC(=O)C1=C(C)N(c2cccc(C(F)(F)F)c2)C(=O)N(C)C1c1ccc(C#N)cc1C(=O)N(C)Cc1nncn1C` (stereo not drawn) [Example 1.79] gave an IC50 of less than 1 nM.

The compound `CC(=O)C1=C(C)N(c2cccc(C(F)(F)F)c2)C(=O)N(C)C1c1ccc(C#N)cc1-c1ncc(C)o1` (stereo not drawn) [Example 7, 4-[5-Acetyl-3,6-dimethyl-2-oxo-1-(3-trifluoromethyl-phenyl)-1,2,3,4-tetrahydro-pyrimidin-4-yl]-3-(5-methyl-oxazol-2-yl)-benzonitrile] had an IC50 of less than 1 nM. On to `CC(=O)C1=C(C)N(c2cccc(C(F)(F)F)c2)C(=O)N(C)C1c1ccc(C#N)cc1C(=O)N1CC[C@H](N(C)C)C1` (stereo partly drawn) [Example 1.64], for which the IC50 is less than 1 nM. In turn, `CC(=O)C1=C(C)N(c2cccc(C(F)(F)F)c2)C(=O)N(C)C1c1ccc(C#N)cc1C(=O)NCc1ccoc1` (stereo not drawn) [Example 1.34] gave an IC50 of less than 1 nM. Consider `CC(=O)C1=C(C)N(c2cccc(C(F)(F)F)c2)C(=O)N(C)C1c1ccc(C#N)cc1C1=CCN(C(=O)OC(C)(C)C)CC1` (stereo not drawn) [Example 5.6, 4-{2-[5-Acetyl-3,6-dimethyl-2-oxo-1-(3-trifluoromethyl-phenyl)-1,2,3,4-tetrahydro-pyrimidin-4-yl]-5-cyano-phenyl}-3,6-dihydro-2H-pyridine-1-carboxylic acid tert-butyl ester], for which the IC50 came out at 4.8 nM. The same measure for `CC(=O)C1=C(C)N(c2cccc(C(F)(F)F)c2)C(=O)N(C)C1c1ccc(C#N)cc1-c1ccc2occc2c1` (stereo not drawn) [Example 5.13]: 22.6 nM. Next, `CC(=O)C1=C(C)N(c2cccc(C(F)(F)F)c2)C(=O)N(C)C1c1ccc(C#N)cc1C(=O)NCc1nncn1C` (stereo not drawn) [Example 1.61]: less than 1.3 nM; `CC(=O)C1=C(C)N(c2cccc(C(F)(F)F)c2)C(=O)N(C)C1c1ccc(C#N)cc1C(=O)NCCS(C)(=O)=O` (stereo not drawn) [Example 1.29]: less than 1 nM. The same measure for `CC(=O)C1=C(C)N(c2cccc(C(F)(F)F)c2)C(=O)N(C)C1c1ccc(C#N)cc1C(=O)NC(C)(C)C#N` (stereo not drawn) [Example 1.33]: 1.8 nM; for `CCOC(=O)C1=C(C)N(c2cccc(C(F)(F)F)c2)C(=O)N(C)C1c1ccc(C#N)cc1-c1cnoc1` (stereo not drawn) [Example 14.3]: less than 1 nM; for `CC(=O)C1=C(C)N(c2cccc(C(F)(F)F)c2)C(=O)N(C)C1c1ccc(C#N)cc1-c1ccc2c(cnn2C)c1` (stereo not drawn) [Example 5.12]: 3 nM. In turn, `CC(=O)C1=C(C)N(c2cccc(C(F)(F)F)c2)C(=O)N(C)C1c1ccc(C#N)cc1C(=O)NC1(C#N)CC1` (stereo not drawn) [Example 1.32] registered an IC50 of less than 1 nM. On to `CC(=O)C1=C(C)N(c2cccc(C(F)(F)F)c2)C(=O)N(C)C1c1ccc(C#N)cc1C(=O)NCc1cocn1` (stereo not drawn) [Example 1.42], for which the IC50 is less than 1 nM. The same measure for `CCOC(=O)C1=C(C)N(c2cccc(C(F)(F)F)c2)C(=O)N(C)C1c1ccc(C#N)cc1C(=O)N(C)CCN` (stereo not drawn) [Example 4.8]: less than 1 nM; for `CCOC(=O)C1=C(C)N(c2cccc(C(F)(F)F)c2)C(=O)N(C)C1c1ccc(C#N)cc1C(=O)NCC#N` (stereo not drawn) [Example 3.7]: 3 nM. The same measure for `CCOC(=O)C1=C(C)N(c2cccc(C(F)(F)F)c2)C(=O)N(C)C1c1ccc(C#N)cc1C(=O)NCC(F)F` (stereo not drawn) [Example 3.18]: less than 1 nM; for `CCOC(=O)C1=C(C)N(c2cccc(C(F)(F)F)c2)C(=O)N(C)C1c1ccc(C#N)cc1C(=O)N1CCn2cnnc2C1` (stereo not drawn) [Example 3.41]: less than 1 nM; for `CC(=O)C1=C(C)N(c2cccc(C(F)(F)F)c2)C(=O)N(C)C1c1ccc(C#N)cc1C(=O)N(C)Cc1ccon1` (stereo not drawn) [Example 1.59]: less than 1 nM. The same measure for `CC(=O)C1=C(C)N(c2cccc(C(F)(F)F)c2)C(=O)N(C)C1c1ccc(C#N)cc1C(=O)NCc1ncco1` (stereo not drawn) [Example 1.37]: less than 1 nM; for `CC(=O)C1=C(C)N(c2cccc(C(F)(F)F)c2)C(=O)N(C)C1c1ccc(C#N)cc1C(=O)N1CCN2CCCC2C1` (stereo not drawn) [Example 1.80]: 6.3 nM. With `CC(=O)C1=C(C)N(c2cccc(C(F)(F)F)c2)C(=O)N(C)C1c1ccc(C#N)cc1C(=O)NCc1nccn1C` (stereo not drawn) [Example 1.57], the IC50 was less than 1 nM. For the compound `CCNC(=O)c1cc(C#N)ccc1C1C(C(=O)OCC)=C(C)N(c2cccc(C(F)(F)F)c2)C(=O)N1C` (stereo not drawn) [Example 3.5], the midpoint of inhibition, the IC50, lay at 3 nM. As for `CCOC(=O)C1=C(C)N(c2cccc(C(F)(F)F)c2)C(=O)N(C)C1c1ccc(C#N)cc1C(=O)N1CC2COCC(C1)N2` (stereo not drawn) [Example 4.4], the IC50 is 11.4 nM.

Consider `COCCCNC(=O)c1cc(C#N)ccc1C1C(C(C)=O)=C(C)N(c2cccc(C(F)(F)F)c2)C(=O)N1C` (stereo not drawn) [Example 1.20], for which the IC50 is less than 1 nM.

Take `CCOC(=O)C1=C(C)N(c2cccc(C(F)(F)F)c2)C(=O)N(C)C1c1ccc(C#N)cc1-c1ccn(C)n1` (stereo not drawn) [Example 14.7]: the IC50 stood at 2.4 nM.

The compound `C#CCNC(=O)c1cc(C#N)ccc1C1C(C(=O)OCC)=C(C)N(c2cccc(C(F)(F)F)c2)C(=O)N1C` (stereo not drawn) [Example 3.6] came in with an IC50 of 3 nM.

Regarding `CCOC(=O)C1=C(C)N(c2cccc(C(F)(F)F)c2)C(=O)N(C)C1c1ccc(C#N)cc1C(=O)NC1COC1` (stereo not drawn) [Example 3.14], the IC50 was less than 1 nM.

In turn, `CC(=O)C1=C(C)N(c2cccc(C(F)(F)F)c2)C(=O)N(C)C1c1ccc(C#N)cc1C(=O)N(C)Cc1nccn1C` (stereo not drawn) [Example 1.75] returned an IC50 of less than 1 nM. Next, `CC(=O)C1=C(C)N(c2cccc(C(F)(F)F)c2)C(=O)N(C)C1c1ccc(C#N)cc1C(=O)NCC(C)(C)N` (stereo not drawn) [Example 2.13]: less than 1 nM; `CC(=O)C1=C(C)N(c2cccc(C(F)(F)F)c2)C(=O)N(C)C1c1ccc(C#N)cc1C(=O)N(C)C` (stereo not drawn) [Example 1.2]: less than 1 nM. `CC(=O)C1=C(C)N(c2cccc(C(F)(F)F)c2)C(=O)N(C)C1c1ccc(C#N)cc1C(=O)N1Cc2ccncc2C1` (stereo not drawn) [Example 1.66] registered an IC50 of 1.7 nM. Next, `CC(=O)C1=C(C)N(c2cccc(C(F)(F)F)c2)C(=O)N(C)C1c1ccc(C#N)cc1-c1ccc2c(ccn2C)c1` (stereo not drawn) [Example 5.14]: 5.7 nM. Turning to `CCOC(=O)C1=C(C)N(c2cccc(C(F)(F)F)c2)C(=O)N(C)C1c1ccc(C#N)cc1-c1cnn(C)c1` (stereo not drawn) [Example 14.5], the IC50 was less than 1 nM.

On to `CC(=O)C1=C(C)N(c2cccc(C(F)(F)F)c2)C(=O)N(C)C1c1ccc(C#N)cc1C(=O)N1CCNC(C)C1` (stereo not drawn) [Example 2.15], for which 4.5 nM corresponded to half-maximal inhibition (IC50). The same measure for `CC(=O)C1=C(C)N(c2cccc(C(F)(F)F)c2)C(=O)N(C)C1c1ccc(C#N)cc1-c1ccn(C)n1` (stereo not drawn) [Example 5.2]: 1.4 nM.

`CC(=O)C1=C(C)N(c2cccc(C(F)(F)F)c2)C(=O)N(C)C1c1ccc(C#N)cc1C(=O)N1CCn2cnnc2C1` (stereo not drawn) [Example 1.74]: the IC50 is less than 1 nM. The same measure for `CCOC(=O)C1=C(C)N(c2cccc(C(F)(F)F)c2)C(=O)N(C)C1c1ccc(C#N)cc1C(=O)NCCN` (stereo not drawn) [Example 4.5]: less than 1 nM; for `CCOC(=O)C1=C(C)N(c2cccc(C(F)(F)F)c2)C(=O)N(C)C1c1ccc(C#N)cc1C(=O)NCCNC` (stereo not drawn) [Example 4.9]: less than 1 nM; for `CC(=O)C1=C(C)N(c2cccc(C(F)(F)F)c2)C(=O)N(C)C1c1ccc(C#N)cc1C(=O)NC1CCN(C)CC1` (stereo not drawn) [Example 1.28]: less than 1 nM. Next, `CC(=O)C1=C(C)N(c2cccc(C(F)(F)F)c2)C(=O)N(C)C1c1ccc(C#N)cc1C(=O)NCc1cn[nH]c1` (stereo not drawn) [Example 1.36]: less than 1 nM; `CCOC(=O)C1=C(C)N(c2cccc(C(F)(F)F)c2)C(=O)N(C)C1c1ccc(C#N)cc1-c1ccn(C)c(=O)c1` (stereo not drawn) [Example 14.9]: less than 1 nM; `CCOC(=O)C1=C(C)N(c2cccc(C(F)(F)F)c2)C(=O)N(C)C1c1ccc(C#N)cc1C(=O)N1CC[C@@H](N)C1` (stereo partly drawn) [Example 4.12]: less than 1 nM. Next, `CC(=O)C1=C(C)N(c2cccc(C(F)(F)F)c2)C(=O)N(C)C1c1ccc(C#N)cc1C(=O)N(C)Cc1ccnn1C` (stereo not drawn) [Example 1.76]: less than 1 nM. In the case of `COCCNC(=O)c1cc(C#N)ccc1C1C(C(C)=O)=C(C)N(c2cccc(C(F)(F)F)c2)C(=O)N1C` (stereo not drawn) [Example 1.15], the IC50 was less than 1 nM.

Regarding `CC(=O)C1=C(C)N(c2cccc(C(F)(F)F)c2)C(=O)N(C)C1c1ccc(C#N)cc1-c1ccco1` (stereo not drawn) [Example 5.1], the IC50 worked out at 1.9 nM. This counts as single-digit nanomolar. In the case of `CC(=O)C1=C(C)N(c2cccc(C(F)(F)F)c2)C(=O)N(C)C1c1ccc(C#N)cc1C(=O)NC1CCC(O)C1` (stereo not drawn) [Example 1.25], 1.1 nM corresponded to half-maximal inhibition (IC50).

The compound `CC(=O)C1=C(C)N(c2cccc(C(F)(F)F)c2)C(=O)N(C)[C@@H]1c1ccc(C#N)cc1C(=O)NCC#N` [Example 13.3] registered an IC50 of less than 1 nM.

In turn, `CCOC(=O)C1=C(C)N(c2cccc(C(F)(F)F)c2)C(=O)N(C)C1c1ccc(C#N)cc1C(=O)NC1CCOC1` (stereo not drawn) [Example 3.21] came in with an IC50 of 1.4 nM.

`CC(=O)C1=C(C)N(c2cccc(C(F)(F)F)c2)C(=O)N(C)C1c1ccc(C#N)cc1C(=O)NCc1ccnn1C` (stereo not drawn) [Example 1.53]: the IC50 is less than 1 nM. The same measure for `CC(=O)C1=C(C)N(c2cccc(C(F)(F)F)c2)C(=O)N(C)C1c1ccc(C#N)cc1-c1ccn(C)c(=O)c1` (stereo not drawn) [Example 5.4]: less than 1 nM.

Turning to `CC(=O)C1=C(C)N(c2cccc(C(F)(F)F)c2)C(=O)N(C)C1c1ccc(C#N)cc1C(=O)N1CC[C@@H](N)C1` (stereo partly drawn) [Example 2.10], the IC50 is less than 1 nM. The same measure for `CC(=O)C1=C(C)N(c2cccc(C(F)(F)F)c2)C(=O)N(C)C1c1ccc(C#N)cc1C(=O)N(C)Cc1ccn(C)n1` (stereo not drawn) [Example 1.78]: less than 1 nM.

Turning to `CC(=O)C1=C(C)N(c2cccc(C(F)(F)F)c2)C(=O)N(C)C1c1ccc(C#N)cc1C(=O)N1CC2CC1CN2` (stereo not drawn) [Example 2.14], the IC50 turned out to be 5.4 nM. Next, `CC(=O)C1=C(C)N(c2cccc(C(F)(F)F)c2)C(=O)N(C)C1c1ccc(C#N)cc1C(=O)NC1CCN(C(C)C)C1` (stereo not drawn) [Example 1.83]: 1.2 nM.

For the origin of these results see patent publication US9290457B2, “Substituted dihydropyrimidinones and their use as inhibitors of neutrophil elastase activity” (Boehringer Ingelheim International GmbH, priority 2014, dated 2016).
